Results from publication PMC8162404, “Proteomimetic surface fragments distinguish targets by function” (Chemical Science, 2020).
Where two headings read alike, the source gives them in different places.

Target: T1, Gal-1 (Homo sapiens, UniProt P09382)
T1 construct: made in house; host or cells: E. coli BL21(DE3)
Assay: Pull-down assay with immobilized protein and LSM libraries
Format: binding
Description: Pull-down assays with immobilized test proteins and foldameric LSM libraries were carried out. Proteins were equilibrated with LSM probes, and equilibrium bound fractions (FB) were determined from the unbound fractions measured by HPLC-MS methods. Hits were corrected with background binding of the resin. The protocol allowed all binding events to equilibrate irrespective of affinity, specificity, and binding kinetics. This was essential to judge overall druggability and promiscuity. Importantly, the concentration of protein and the total concentration of foldameric LSMs were equimolar, which minimized competition between the probes. This experimental setup approximated independent binding of individual library members. Results were visualized as heat maps of dissociation constants (Fig. 3).
Pull-down assay and data analysis
Pull-down assay. LSM sublibraries were screened separately as previously described.(2) Experiments were performed in the following buffers: (i) 20 mM pH 7.4 HEPES, 150 mM NaCl, 5 mM CaCl2 for CaM; (ii) 50 mM pH 7.4 HEPES, 150 mM NaCl, 1 mM TCEP, 1 mM CaCl2 for S100 proteins; (iii) 20 mM pH 7.4 HEPES, 150 mM NaCl, 1 mM TCEP for Gal-1 and (iv) 20 mM pH 7.4 HEPES, 150 mM NaCl for RecQ-WH. Assays were performed in paper filter spin cups (Thermo Scientific) with sample volumes of 100 µl. Hexahistidine-tagged proteins were immobilized on previously washed Co-NTA resin (TALON, Takara Bio USA, Inc., Mountain View, CA) in 64 µM final concentration. LSM sublibrary was added, in which each of the 64 library members were used at a concentration of 1 µM. Samples were incubated at room temperature for 30 min with shaking at 100 rpm. Then, samples were centrifuged at 1000 rpm for 2 min and washed with 100 µl pull-down buffer to remove unbound compounds.
The control experiments were performed using the same compounds and the resin but without the immobilized protein. In case of competitive assays, competitor peptides were added to LSM sublibrary samples in 200 µM final concentration. In the case of Gal-1, lactose (competitor) was used in a concentration of 10 mM. Experiments were performed at least twice. Mean […]
LC-MS methods and parameters. HPLC/ESI-MS analysis was used to characterize the samples from the pull-down assay. LC-MS analysis was performed with a Thermo Scientific Dionex UltiMate 3000 HPLC system interfaced to an LTQ ion trap mass spectrometer (Thermo Electron Corp., San Jose, CA, USA). Samples were injected onto an Aeris Widepore XB-C18 (250 x 4.6 mm) analytical HPLC column using gradient elution 5-80 % solution B during 25 minutes. For pull-down samples, eluent composition was 0.1% acetic acid in distilled water (Solution A) and 0.1% acetic acid in acetonitrile (solution B). Mass spectra were acquired in full scan mode from 200 to 2000 m/z range. For overlapping peaks, selective reaction monitoring (SRM) was […]
MS data analysis. Thermo Xcalibur 2.2 software was used for peak identification and integration. The majority of the foldameric fragments could be resolved independently via HPLC-MS/MS measurements based on molecular weight, MS fragmentation pattern and retention time. Peaks of some foldamers with β3-hIle or β3-hLeu in position R2 could not be resolved, these were integrated and averaged. In the processing method, each sample component was associated to a chromatographic peak based on previously identified mass (m/z) and retention time (ref (2) and Table S7-10). Using ICIS peak detection algorithm, the general detection and integration criteria were: smoothing points: 5, baseline window: 80, area noise factor: 5, peak noise factor: 10. Using these processing setups, all raw data files were reprocessed together and analyzed. Errors in peak identification during the automatic processing were corrected manually.
Calculation of the discussed parameters
1. Bound fractions (FB.) were calculated from the HPLC-MS intensity loss of the LSM probes compared to the control where no protein was immobilized to the resin: […]

[1] = read-out: KD estimated by pull-down experiments
[2] = H12 library, 1:1 binding assumed, read-out: Surface mapping KD (apparent)

T1 sequence (P09382 whole entry): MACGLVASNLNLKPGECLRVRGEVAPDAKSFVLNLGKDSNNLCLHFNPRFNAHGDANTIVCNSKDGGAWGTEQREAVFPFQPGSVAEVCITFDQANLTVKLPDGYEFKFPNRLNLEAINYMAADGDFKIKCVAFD

Row | Structure (SMILES) | Kd [2] [µM] | Kd [1] [µM]
1 | NC(=O)[C@H]1CCCC[C@@H]1NC(=O)C[C@H](Cc1c[nH]c2ccccc12)NC(=O)[C@H]1CCCC[C@@H]1NC(=O)[C@H]1CCCC[C@@H]1NC(=O)C[C@H](Cc1c[nH]c2ccccc12)NC(=O)[C@H]1CCCC[C@@H]1N [1b] |  | 30 to 40
2 | NC(=O)[C@H]1CCCC[C@@H]1NC(=O)C[C@H](Cc1ccccc1)NC(=O)[C@H]1CCCC[C@@H]1NC(=O)[C@H]1CCCC[C@@H]1NC(=O)C[C@H](Cc1c[nH]c2ccccc12)NC(=O)[C@H]1CCCC[C@@H]1N [12b] |  | 30 to 40
3 | C[C@@H](CC(=O)N[C@H]1CCC[C@@H]1C(=O)N[C@H]1CCC[C@@H]1C(=O)N[C@@H](CC(=O)O)CC(=O)N[C@H]1CCC[C@@H]1C(=O)N[C@H]1CCC[C@@H]1C(N)=O)NC(=O)[C@H]1CCC[C@@H]1NC(=O)[C@H]1CCC[C@@H]1N [H12 AD] | 438 | 
4 | C[C@@H](CC(=O)N[C@H]1CCC[C@@H]1C(=O)N[C@H]1CCC[C@@H]1C(=O)N[C@@H](CCC(=O)O)CC(=O)N[C@H]1CCC[C@@H]1C(=O)N[C@H]1CCC[C@@H]1C(N)=O)NC(=O)[C@H]1CCC[C@@H]1NC(=O)[C@H]1CCC[C@@H]1N [H12 AE] | 388 | 
5 | C[C@@H](CC(=O)N[C@H]1CCC[C@@H]1C(=O)N[C@H]1CCC[C@@H]1C(=O)N[C@@H](CC(N)=O)CC(=O)N[C@H]1CCC[C@@H]1C(=O)N[C@H]1CCC[C@@H]1C(N)=O)NC(=O)[C@H]1CCC[C@@H]1NC(=O)[C@H]1CCC[C@@H]1N [H12 AN] | 330 | 
6 | C[C@@H](CC(=O)N[C@H]1CCC[C@@H]1C(=O)N[C@H]1CCC[C@@H]1C(=O)N[C@@H](CCC(N)=O)CC(=O)N[C@H]1CCC[C@@H]1C(=O)N[C@H]1CCC[C@@H]1C(N)=O)NC(=O)[C@H]1CCC[C@@H]1NC(=O)[C@H]1CCC[C@@H]1N [H12 AQ] | 456 | 
7 | CC(C)[C@@H](CC(=O)N[C@H]1CCC[C@@H]1C(=O)N[C@H]1CCC[C@@H]1C(N)=O)NC(=O)[C@H]1CCC[C@@H]1NC(=O)[C@H]1CCC[C@@H]1NC(=O)C[C@H](C)NC(=O)[C@H]1CCC[C@@H]1NC(=O)[C@H]1CCC[C@@H]1N [H12 AV] | 491 | 
8 | NC(=O)[C@H]1CCC[C@@H]1NC(=O)[C@H]1CCC[C@@H]1NC(=O)C[C@H](CC(=O)O)NC(=O)[C@H]1CCC[C@@H]1NC(=O)[C@H]1CCC[C@@H]1NC(=O)C[C@H](CC(=O)O)NC(=O)[C@H]1CCC[C@@H]1NC(=O)[C@H]1CCC[C@@H]1N [H12 DD] | 372 | 
9 | C[C@@H](O)[C@@H](CC(=O)N[C@H]1CCC[C@@H]1C(=O)N[C@H]1CCC[C@@H]1C(N)=O)NC(=O)[C@H]1CCC[C@@H]1NC(=O)[C@H]1CCC[C@@H]1NC(=O)C[C@H](CC(=O)O)NC(=O)[C@H]1CCC[C@@H]1NC(=O)[C@H]1CCC[C@@H]1N [H12 DT] | 398 | 
10 | C[C@@H](CC(=O)N[C@H]1CCC[C@@H]1C(=O)N[C@H]1CCC[C@@H]1C(N)=O)NC(=O)[C@H]1CCC[C@@H]1NC(=O)[C@H]1CCC[C@@H]1NC(=O)C[C@H](CCC(=O)O)NC(=O)[C@H]1CCC[C@@H]1NC(=O)[C@H]1CCC[C@@H]1N [H12 EA] | 340 | 
11 | NC(=O)[C@H]1CCC[C@@H]1NC(=O)[C@H]1CCC[C@@H]1NC(=O)C[C@H](CCC(=O)O)NC(=O)[C@H]1CCC[C@@H]1NC(=O)[C@H]1CCC[C@@H]1NC(=O)C[C@H](CCC(=O)O)NC(=O)[C@H]1CCC[C@@H]1NC(=O)[C@H]1CCC[C@@H]1N [H12 EE] | 349 | 

Further compounds by falling Kd [2], results first:

Row | Kd [2] [µM] | Structure (SMILES) | Kd [1] [µM]
12 | 307 | C[C@@H](CC(=O)N[C@H]1CCC[C@@H]1C(=O)N[C@H]1CCC[C@@H]1C(=O)N[C@@H](CO)CC(=O)N[C@H]1CCC[C@@H]1C(=O)N[C@H]1CCC[C@@H]1C(N)=O)NC(=O)[C@H]1CCC[C@@H]1NC(=O)[C@H]1CCC[C@@H]1N [H12 AS] | 
13 | 270 | CC(C)[C@@H](CC(=O)N[C@H]1CCC[C@@H]1C(=O)N[C@H]1CCC[C@@H]1C(N)=O)NC(=O)[C@H]1CCC[C@@H]1NC(=O)[C@H]1CCC[C@@H]1NC(=O)C[C@H](CC(=O)O)NC(=O)[C@H]1CCC[C@@H]1NC(=O)[C@H]1CCC[C@@H]1N [H12 DV] | 
14 | 254 | NC(=O)[C@H]1CCC[C@@H]1NC(=O)[C@H]1CCC[C@@H]1NC(=O)C[C@H](Cc1ccccc1)NC(=O)[C@H]1CCC[C@@H]1NC(=O)[C@H]1CCC[C@@H]1NC(=O)C[C@H](CC(=O)O)NC(=O)[C@H]1CCC[C@@H]1NC(=O)[C@H]1CCC[C@@H]1N [H12 DF] | 
15 | 248 | C[C@@H](CC(=O)N[C@H]1CCC[C@@H]1C(=O)N[C@H]1CCC[C@@H]1C(N)=O)NC(=O)[C@H]1CCC[C@@H]1NC(=O)[C@H]1CCC[C@@H]1NC(=O)C[C@H](CC(=O)O)NC(=O)[C@H]1CCC[C@@H]1NC(=O)[C@H]1CCC[C@@H]1N [H12 DA] | 
16 | 245 | NC(=O)[C@H]1CCC[C@@H]1NC(=O)[C@H]1CCC[C@@H]1NC(=O)C[C@H](Cc1ccccc1)NC(=O)[C@H]1CCC[C@@H]1NC(=O)[C@H]1CCC[C@@H]1NC(=O)C[C@H](CCC(=O)O)NC(=O)[C@H]1CCC[C@@H]1NC(=O)[C@H]1CCC[C@@H]1N [H12 EF] | 
17 | 244 | NC(=O)CC[C@@H](CC(=O)N[C@H]1CCC[C@@H]1C(=O)N[C@H]1CCC[C@@H]1C(N)=O)NC(=O)[C@H]1CCC[C@@H]1NC(=O)[C@H]1CCC[C@@H]1NC(=O)C[C@H](CC(=O)O)NC(=O)[C@H]1CCC[C@@H]1NC(=O)[C@H]1CCC[C@@H]1N [H12 DQ] | 
18 | 240 | NC(=O)[C@H]1CCC[C@@H]1NC(=O)[C@H]1CCC[C@@H]1NC(=O)C[C@H](Cc1c[nH]c2ccccc12)NC(=O)[C@H]1CCC[C@@H]1NC(=O)[C@H]1CCC[C@@H]1NC(=O)C[C@H](CC(=O)O)NC(=O)[C@H]1CCC[C@@H]1NC(=O)[C@H]1CCC[C@@H]1N [H12 DW] | 
19 | 238 | NC(=O)[C@H]1CCC[C@@H]1NC(=O)[C@H]1CCC[C@@H]1NC(=O)C[C@H](CCC(=O)O)NC(=O)[C@H]1CCC[C@@H]1NC(=O)[C@H]1CCC[C@@H]1NC(=O)C[C@H](CC(=O)O)NC(=O)[C@H]1CCC[C@@H]1NC(=O)[C@H]1CCC[C@@H]1N [H12 DE] | 
20 | 238 | NC(=O)[C@H]1CCC[C@@H]1NC(=O)[C@H]1CCC[C@@H]1NC(=O)C[C@H](CC(=O)O)NC(=O)[C@H]1CCC[C@@H]1NC(=O)[C@H]1CCC[C@@H]1NC(=O)C[C@H](CCC(=O)O)NC(=O)[C@H]1CCC[C@@H]1NC(=O)[C@H]1CCC[C@@H]1N [H12 ED] | 
21 | 226 | NC(=O)C[C@@H](CC(=O)N[C@H]1CCC[C@@H]1C(=O)N[C@H]1CCC[C@@H]1C(N)=O)NC(=O)[C@H]1CCC[C@@H]1NC(=O)[C@H]1CCC[C@@H]1NC(=O)C[C@H](CC(=O)O)NC(=O)[C@H]1CCC[C@@H]1NC(=O)[C@H]1CCC[C@@H]1N [H12 DN] | 
22 | 218 | CSCC[C@@H](CC(=O)N[C@H]1CCC[C@@H]1C(=O)N[C@H]1CCC[C@@H]1C(N)=O)NC(=O)[C@H]1CCC[C@@H]1NC(=O)[C@H]1CCC[C@@H]1NC(=O)C[C@H](CC(=O)O)NC(=O)[C@H]1CCC[C@@H]1NC(=O)[C@H]1CCC[C@@H]1N [H12 DM] | 
23 | 205 | NC(=O)[C@H]1CCC[C@@H]1NC(=O)[C@H]1CCC[C@@H]1NC(=O)C[C@H](Cc1ccc(O)cc1)NC(=O)[C@H]1CCC[C@@H]1NC(=O)[C@H]1CCC[C@@H]1NC(=O)C[C@H](CC(=O)O)NC(=O)[C@H]1CCC[C@@H]1NC(=O)[C@H]1CCC[C@@H]1N [H12 DY] | 
24 | 199 | NC(=O)[C@H]1CCC[C@@H]1NC(=O)[C@H]1CCC[C@@H]1NC(=O)C[C@H](CO)NC(=O)[C@H]1CCC[C@@H]1NC(=O)[C@H]1CCC[C@@H]1NC(=O)C[C@H](CC(=O)O)NC(=O)[C@H]1CCC[C@@H]1NC(=O)[C@H]1CCC[C@@H]1N [H12 DS] | 
25 | 173 | NCCCC[C@@H](CC(=O)N[C@H]1CCC[C@@H]1C(=O)N[C@H]1CCC[C@@H]1C(N)=O)NC(=O)[C@H]1CCC[C@@H]1NC(=O)[C@H]1CCC[C@@H]1NC(=O)C[C@H](CC(=O)O)NC(=O)[C@H]1CCC[C@@H]1NC(=O)[C@H]1CCC[C@@H]1N [H12 DK] | 
